The values that follow come from ChEMBL document CHEMBL1139096, “HeLa cells apoptosis induced by 1,7-dimethyl-1,4,7,10-tetraazacyclododecane” (2007).

Assay [1] concerns HeLa. In words: Cell cycle arrest in human HeLa cells assessed as accumulation at S phase at 300 umol/L after 72 hrs. It is filed as functional.
The test system of assay [2] is HeLa. The assay can be described thus: Induction of apoptosis in human HeLa cells assessed as morphological changes at 200 umol/L. The class given is functional, cell-based.
Assay [3] concerns HeLa. In words: Cell cycle arrest in human HeLa cells assessed as accumulation at G2/M phase at 300 umol/L after 72 hrs. The class given is functional.
The test system of assay [4] is HeLa. In words: Growth inhibition of human HeLa cells at 0.1 mM by MTT assay. It is filed as functional. The note with it: read-out: GI.
Assay [5] deals with A549. In words: Growth inhibition of human A549 cells at 1 uM by MTT assay. It is filed as functional. The note with it: read-out: GI. A general note: Formazan colour is commonly taken as a measure of viable cells.
The subject of assay [6] is A549. The assay can be described thus: Growth inhibition of human A549 cells at 0.1 uM by MTT assay. The class given is functional. As to conditions: read-out: GI.
The subject of assay [7] is HeLa. The assay can be described thus: Cell cycle arrest in human HeLa cells assessed as accumulation at G0-G1 phase at 300 umol/L after 72 hrs. The class given is functional.
Assay [8] has as its system HeLa. The assay can be described thus: Induction of apoptosis in human HeLa cells assessed as DNA fragmentation at 200 umol/L by electrophoresis. The class given is functional, cell-based.
The test system of assay [9] is HeLa. In words: Induction of apoptosis in human HeLa cells assessed as morphological changes at 100 umol/L. It is filed as functional, cell-based.
Assay [10] deals with HeLa. The assay can be described thus: Cell cycle arrest in human HeLa cells assessed as accumulation at G2/M phase at 200 umol/L after 72 hrs. The class given is functional.
For assay [11], the system named is HeLa. In words: Cell cycle arrest in human HeLa cells assessed as accumulation at S phase at 50 umol/L after 72 hrs. The class given is functional.
The subject of assay [12] is HeLa. In words: Growth inhibition of human HeLa cells at 0.1 uM by MTT assay. It is filed as functional.
For assay [13], the system named is A549. In words: Growth inhibition of human A549 cells at 0.1 mM by MTT assay. It is filed as functional. The note with it: read-out: GI.
Assay [14] has as its system HeLa. In words: Induction of apoptosis in human HeLa cells at 300 umol/L by flow cytometry. The class given is functional. (A flow cytometer gives signals particle by particle.)
The test system of assay [15] is HeLa. The assay can be described thus: Growth inhibition of human HeLa cells at 10 uM by MTT assay. It is filed as functional. The note with it: read-out: GI.
In assay [16] the test system is A549. In words: Induction of apoptosis in human A549 cells at 200 umol/L by flow cytometry. The class given is functional.
In assay [17] the test system is HeLa. In words: Induction of apoptosis in human HeLa cells assessed as morphological changes at 50 umol/L. It is filed as functional, cell-based.
The subject of assay [18] is HeLa. In words: Cell cycle arrest in human HeLa cells assessed as accumulation at G0-G1 phase at 50 umol/L after 72 hrs. The class given is functional.
Assay [19] relates to HeLa. In words: Growth inhibition of human HeLa cells at 1 uM by MTT assay. The class given is functional. The note with it: read-out: GI.
In assay [20] the test system is A549. The assay can be described thus: Growth inhibition of human A549 cells at 10 uM by MTT assay. The class given is functional. The note with it: read-out: GI.

Active and inactive are the calls of the source. The rule behind the calls is not given here.

For `CN1CCNCCN(C)CCNCC1`, the Activity in the assay on HeLa [1] came to 0%; with HeLa [3], 15.3%; with HeLa [7], 84.7%; in the assay on HeLa [10] it was 25.2%; in the assay with HeLa [11], 33.3%; in the assay with HeLa [14], 55%. Also, the figures for the Activity with A549 [16] and with HeLa [18] were 7% and 60.5%, respectively. The outcome with HeLa [2], in the assay on HeLa [8] and with HeLa [9] was Active. The inhibition of growth at 100 µM with HeLa [4] turned out to be 63.1%; in the assay with A549 [13], 53.6%. Moreover, the inhibition of growth at 1 µM amounted to 13.7% in the assay on A549 [5] and 9.8% in the assay with HeLa [19]. Further, the inhibition of growth at 0.1 µM in the assay with A549 [6] is 11%. In addition, in the assay on HeLa [12], the growth inhibition (GI) worked out at 9%. Moreover, the inhibition of growth at 10 µM was determined as 17.7% in the assay with HeLa [15] and 22.4% in the assay on A549 [20]. Besides, the result with HeLa [17] was inactive.
